# Assay results: paper PMC11084212, “Nontraditional Roles of Magnesium Ions in Modulating Sav2152: Insight from a Haloacid Dehalogenase-like Superfamily Phosphatase from Staphylococcus aureus” (International Journal of Molecular Sciences, 2024)
# Biological target: T1, Sav2152 (Staphylococcus aureus, UniProt A0A0H3JWK0)
# T1 construct: monomer; C-terminus (res. 234-285) disordered in crystal
# Assay: EnzChek phosphatase assay, DiFMU release
# Format: biochemical
# Details: 100 uM DiFMUP, 10 uM protein, 1 mM Mg2+, 100 mM NaCl, 25 mM Tris-HCl pH 7.0
# T1 sequence (A0A0H3JWK0 entry or part of it): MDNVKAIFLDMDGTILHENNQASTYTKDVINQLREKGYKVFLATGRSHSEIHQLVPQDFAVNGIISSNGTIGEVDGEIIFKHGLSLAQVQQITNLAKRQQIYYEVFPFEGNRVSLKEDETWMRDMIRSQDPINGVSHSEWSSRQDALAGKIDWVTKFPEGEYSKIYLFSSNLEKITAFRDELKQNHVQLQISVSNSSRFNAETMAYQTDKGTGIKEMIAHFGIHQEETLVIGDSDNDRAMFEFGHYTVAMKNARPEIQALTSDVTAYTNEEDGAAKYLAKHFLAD
smiles,measurement,value
Cc1cc(=O)oc2c(F)c(OP(=O)(O)O)c(F)cc12 [DiFMUP],"EnzChek phosphatase assay, DiFMU release",enzymatic activity of this protein was investigated using a simple phosphatase assay kit with DiFMUP
